Like-named read-outs stand apart in the source and are kept apart here. Values belong to the compound of their own block, whether it stands above or below them.
Experiments:
[1] = target: T1, recombinant Nampt (Homo sapiens, UniProt P43490); settings: cited from earlier work
[2] = target: T1, recombinant Nampt; experiment: Recombinant Nampt inhibition assay; type: biochemical; settings: read-out: IC50, inhibition of recombinant Nampt activity; colorimetric assay
[3] = tested on: 184A1; experiment: MTT assay, 184A1 cells, 72 h; type: cell-based; settings: read-out: IC50 (nM) ± SD (n) 184A1, 184A1 noncancerous Nampt-dependent human breast epithelium cells, n=4
[4] = continuous intravenous infusion for 4 consecutive days, patients; cited from earlier work

T1 sequence (P43490 whole entry): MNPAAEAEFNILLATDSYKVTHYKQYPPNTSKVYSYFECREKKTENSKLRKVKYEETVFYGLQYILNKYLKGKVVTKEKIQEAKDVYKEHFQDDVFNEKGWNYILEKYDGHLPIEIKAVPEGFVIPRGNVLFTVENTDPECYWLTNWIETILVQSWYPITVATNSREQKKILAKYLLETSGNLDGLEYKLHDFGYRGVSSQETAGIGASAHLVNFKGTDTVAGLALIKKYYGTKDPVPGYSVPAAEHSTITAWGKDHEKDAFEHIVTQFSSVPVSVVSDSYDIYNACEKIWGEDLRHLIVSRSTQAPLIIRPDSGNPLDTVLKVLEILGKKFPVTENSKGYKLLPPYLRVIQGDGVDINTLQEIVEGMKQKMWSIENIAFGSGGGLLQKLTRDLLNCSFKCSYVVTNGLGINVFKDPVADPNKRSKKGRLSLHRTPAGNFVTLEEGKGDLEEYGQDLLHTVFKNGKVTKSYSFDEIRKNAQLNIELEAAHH

Compound: 1-(4′-(trans-3″-(3‴-pyridyl)acrylamido)butyl)-1,7-dicarbadodecaborane [MC4-PPEA]
IC50 ([1]; read-out: IC50, inhibition of Nampt, previously reported): 4.2 nM
fold higher Nampt inhibitory activity than FK866 ([1]; relative to FK866): ~ 100 fold

IC50 [2]: 6.8 nM
Compound: 1-(hydroxymethyl)-7-(4′-(trans-3″-(3′″-pyridyl)acrylamido)butyl)-1,7-dicarbadodecaborane [hm-MC4-PPEA]
IC50 [3]: 1.9 ± 0.4 nM

Compound: O=C(/C=C/c1cccnc1)NCCCCC1CCN(C(=O)c2ccccc2)CC1 [FK866]
dose-limiting toxicity [4]: thrombocytopenia

— publication PMC5923274 (Drug Design, Development and Therapy, 2018)
